Results published in ChEMBL document CHEMBL1201862, “PubChem BioAssay data set” (2004).
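Method: 48-hour compound exposure of cells in 96-well plates, five concentrations, linear interpolation of endpoints. Here, GI50 denotes the concentration required for 50% inhibition of growth.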 Active and inactive are the calls of the source. No stated cut-off is given here; in the data, active = GI50 up to about 1.1 µM and inactive = higher.

Tests used:
Experiment in all cases: NCI anticancer screen, dose series, 48 h
NCI-H522 = test system: NCI-H522
COLO 205 = test system: COLO 205
HOP-62 = test system: HOP-62
A498 = test system: A498
OVCAR-4 = test system: OVCAR-4
SN12C = test system: SN12C
CCRF-CEM = test system: CCRF-CEM
Hs-578T = test system: Hs-578T
BT-549 = test system: BT-549
SNB-19 = test system: SNB-19
A549 = test system: A549
EKVX = test system: EKVX
CAKI-1 = test system: CAKI-1
HT-29 = test system: HT-29
NCI/ADR-RES = test system: NCI/ADR-RES
UACC-257 = test system: UACC-257
SK-MEL-28 = test system: SK-MEL-28
T47D = test system: T47D
786-0 = test system: 786-0
RXF 393 = test system: RXF 393
RPMI-8226 = test system: RPMI-8226
K562 = test system: K562
MDA-MB-435 = test system: MDA-MB-435
ACHN = test system: ACHN
LOX IMVI = test system: LOX IMVI
MDA-MB-231 = test system: MDA-MB-231
HCT-15 = test system: HCT-15
SR = test system: SR
UO-31 = test system: UO-31
NCI-H226 = test system: NCI-H226
MDA-N = test system: MDA-N
MOLT-4 = test system: MOLT-4
SW-620 = test system: SW-620
KM12 = test system: KM12
NCI-H23 = test system: NCI-H23
MCF7 = test system: MCF7
U-251 = test system: U-251
SF-539 = test system: SF-539
UACC-62 = test system: UACC-62
DU-145 = test system: DU-145
HOP-92 = test system: HOP-92
TK-10 = test system: TK-10
SK-OV-3 = test system: SK-OV-3
M14 = test system: M14
HL-60 = test system: HL-60
IGROV-1 = test system: IGROV-1
SK-MEL-5 = test system: SK-MEL-5
OVCAR-5 = test system: OVCAR-5
NCI-H460 = test system: NCI-H460
SNB-75 = test system: SNB-75
SF-295 = test system: SF-295
Malme-3M = test system: Malme-3M
SF-268 = test system: SF-268
HCC 2998 = test system: HCC 2998
PC-3 = test system: PC-3
HCT-116 = test system: HCT-116
SK-MEL-2 = test system: SK-MEL-2
OVCAR-3 = test system: OVCAR-3
OVCAR-8 = test system: OVCAR-8

N#Cc1nc(Sc2cnsn2)c(Sc2cnsn2)nc1C#N
GI50 (NCI-H522): 3.93 µM (inactive) | GI50 (COLO 205): 3.85 µM (inactive) | GI50 (HOP-62): 18.7 µM (inactive) | GI50 (A498): 21.8 µM (inactive) | GI50 (OVCAR-4): 21.7 µM (inactive) | GI50 (SN12C): 21.4 µM (inactive) | GI50 (CCRF-CEM): 0.426 µM (active) | GI50 (Hs-578T): 19.1 µM (inactive) | GI50 (BT-549): 21.4 µM (inactive) | GI50 (SNB-19): 30 µM (inactive) | GI50 (A549): 28.6 µM (inactive) | GI50 (EKVX): 10.4 µM (inactive) | GI50 (CAKI-1): 6.47 µM (inactive) | GI50 (HT-29): 20.6 µM (inactive) | GI50 (NCI/ADR-RES): 22.8 µM (inactive) | GI50 (UACC-257): 13.6 µM (inactive) | GI50 (SK-MEL-28): 22.6 µM (inactive) | GI50 (T47D): 6.25 µM (inactive) | GI50 (786-0): 6.78 µM (inactive) | GI50 (RXF 393): 5.94 µM (inactive) | GI50 (RPMI-8226): 3.5 µM (inactive) | GI50 (K562): 2.9 µM (inactive) | GI50 (MDA-MB-435): 11.5 µM (inactive) | GI50 (ACHN): 7.1 µM (inactive) | GI50 (LOX IMVI): 17.9 µM (inactive) | GI50 (MDA-MB-231): 23.9 µM (inactive) | GI50 (HCT-15): 6.68 µM | GI50 (SR): 8.91 µM (inactive) | GI50 (UO-31): 9.44 µM (inactive) | GI50 (NCI-H226): 19.9 µM (inactive) | GI50 (MDA-N): 20.4 µM (inactive) | GI50 (MOLT-4): 2.65 µM (inactive) | GI50 (SW-620): 2.25 µM (inactive) | GI50 (KM12): 20.7 µM (inactive) | GI50 (NCI-H23): 21.6 µM (inactive) | GI50 (MCF7): 21.9 µM (inactive) | GI50 (U-251): 29.4 µM (inactive) | GI50 (SF-539): 19.4 µM (inactive) | GI50 (UACC-62): 17.6 µM (inactive) | GI50 (DU-145): 17.1 µM (inactive) | GI50 (HOP-92): 20 µM (inactive) | GI50 (TK-10): 5.12 µM (inactive) | GI50 (SK-OV-3): 17.9 µM (inactive) | GI50 (M14): 20.4 µM (inactive) | GI50 (HL-60): 1.95 µM (inactive) | GI50 (IGROV-1): 18.5 µM (inactive) | GI50 (SK-MEL-5): 14.9 µM (inactive) | GI50 (OVCAR-5): 18.9 µM (inactive) | GI50 (NCI-H460): 24.6 µM (inactive) | GI50 (SNB-75): 22.9 µM (inactive) | GI50 (SF-295): 16.6 µM (inactive) | GI50 (Malme-3M): 4.81 µM (inactive) | GI50 (SF-268): 19.4 µM (inactive) | GI50 (HCC 2998): 18.7 µM (inactive) | GI50 (PC-3): 21.6 µM (inactive) | GI50 (HCT-116): 6.65 µM (inactive) | GI50 (SK-MEL-2): 21.2 µM (inactive) | GI50 (OVCAR-3): 6.79 µM (inactive) | GI50 (OVCAR-8): 24.5 µM (inactive)

C/C=C/c1cc2c(cc1O)CC[C@@H]1[C@@H]2CC[C@]2(C)[C@@H](O)CC[C@@H]12
GI50 (NCI-H522): < 0.0142 µM (active) | GI50 (COLO 205): 11.7 µM (inactive) | GI50 (HOP-62): 0.0791 µM (active) | GI50 (A498): 0.146 µM (active) | GI50 (OVCAR-4): 13.6 µM (inactive) | GI50 (SN12C): 0.08 µM (active) | GI50 (CCRF-CEM): 0.0289 µM (active) | GI50 (Hs-578T): 0.0653 µM (active) | GI50 (BT-549): 1.6 µM (inactive) | GI50 (SNB-19): 0.0695 µM (active) | GI50 (A549): 0.0536 µM (active) | GI50 (EKVX): 5.07 µM (inactive) | GI50 (CAKI-1): 0.0144 µM (active) | GI50 (HT-29): 6.34 µM (inactive) | GI50 (NCI/ADR-RES): 0.0246 µM (active) | GI50 (UACC-257): 0.132 µM (active) | GI50 (SK-MEL-28): 1.49 µM (inactive) | GI50 (T47D): 14.8 µM (inactive) | GI50 (786-0): 0.053 µM (active) | GI50 (RXF 393): 0.1 µM (active) | GI50 (RPMI-8226): 0.0264 µM (active) | GI50 (K562): 0.016 µM (active) | GI50 (MDA-MB-435): 0.0102 µM (active) | GI50 (ACHN): 0.0594 µM (active) | GI50 (LOX IMVI): 0.0357 µM (active) | GI50 (MDA-MB-231): 0.317 µM (active) | GI50 (HCT-15): 0.069 µM | GI50 (SR): 0.0259 µM (active) | GI50 (UO-31): 0.372 µM (active) | GI50 (NCI-H226): 0.226 µM (active) | GI50 (MDA-N): 0.0215 µM (active) | GI50 (MOLT-4): 0.0409 µM (active) | GI50 (SW-620): 0.04 µM (active) | GI50 (KM12): 1.24 µM (inactive) | GI50 (NCI-H23): 0.133 µM (active) | GI50 (MCF7): 0.171 µM (active) | GI50 (U-251): 0.0315 µM (active) | GI50 (SF-539): 0.0237 µM (active) | GI50 (UACC-62): 0.0246 µM (active) | GI50 (DU-145): 0.0849 µM (active) | GI50 (TK-10): 14.3 µM (inactive) | GI50 (SK-OV-3): 0.183 µM (active) | GI50 (M14): 0.041 µM (active) | GI50 (HL-60): 0.0183 µM (active) | GI50 (IGROV-1): 1.96 µM (inactive) | GI50 (SK-MEL-5): 0.0289 µM (active) | GI50 (OVCAR-5): 10.8 µM (inactive) | GI50 (NCI-H460): 0.0275 µM (active) | GI50 (SNB-75): 0.188 µM (active) | GI50 (SF-295): 0.966 µM (active) | GI50 (Malme-3M): 0.164 µM (active) | GI50 (SF-268): 0.217 µM (active) | GI50 (HCC 2998): 0.705 µM (active) | GI50 (PC-3): 2.37 µM (inactive) | GI50 (HCT-116): 0.022 µM (active) | GI50 (SK-MEL-2): 1.51 µM (inactive) | GI50 (OVCAR-3): 0.0193 µM (active) | GI50 (OVCAR-8): 0.182 µM (active)
